In patent publication US20230322767A1, “ARYL SUBSTITUTED PYRROLO-PYRIDINONES AND THERAPEUTIC USES THEREOF” (Bayer Aktiengesellschaft, priority 2020, published 2023) one finds IC50 data, which are given here for 19 molecules.

What all share (assay type): biochemical
The target in one assay is CSNK1D (Homo sapiens (Human), UniProt P48730). Put plainly: CSNK1D Assay (ADP-Glo, 1 μM ATP). The following applies: median, read-out: CSNK1D IC50 [mol/l] (median). In outline:
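Enzyme preincubated with compound 15 min at 22° C in 50 mM HEPES pH 7.5 buffer with 10 mM MgCl2, 1 mM DTT; kinase reaction run at 1 μM ATP with biotinylated peptide substrate. ADP formed was detected by ADP-Glo luminescence as the measure of activity.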
(ADP-Glo turns the ADP formed in a reaction into a luminescent signal.)

In assay [1] the target is wild-type Epidermal Growth Factor Receptor (EGFR) (Homo sapiens (Human), UniProt P00533). Put plainly: WT-EGFR Kinase Assay (TR-FRET, 2 mM ATP). In outline: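 GST-tagged human EGFR (R669–A1210, Sf9-expressed) preincubated 15 min at 22° C with compound in pH 7.0 Hepes/MgCl2 buffer, then reacted at 2 mM ATP with a biotinylated peptide substrate. Phosphorylation detected by TR-FRET (streptavidin-XL665, Tb-cryptate anti-phosphotyrosine) as the 665/620 nm emission ratio.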
On the technique in general: TR-FRET usually uses a lanthanide donor and a delayed reading to cut background.

Another assay deals with CSNK1A1 (Homo sapiens (Human), UniProt P48729). Kind of assay: CSNK1A1 Assay 2 (ADP-Glo, 1 μM ATP). As to conditions: median, read-out: CSNK1A1 Assay 2 IC50 [mol/l] (median). In outline: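 Enzyme (~0.0375 ng/μL) preincubated 15 min at 22° C with compound in HEPES pH 7.5 buffer, then reacted with 1 μM ATP and biotin-Ahx-KRRRAL-pS-VASLPGL peptide. ADP product measured by ADP-Glo luminescence after 1 h ATP depletion and 1 h detection at 22° C.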

[2] abbreviates: read-out: EGFR Wildtyp 2 mM ATP IC50 [mol/l] (median), median or individual measurements.
The mark [3] stands for this setting: EGFR Wildtyp 2 mM ATP IC50 [mol/l] (median), median or individual measurements.

Where two headings read alike, the source gives them in different places.

wild-type Epidermal Growth Factor Receptor (EGFR), sequence (P00533 669-1210): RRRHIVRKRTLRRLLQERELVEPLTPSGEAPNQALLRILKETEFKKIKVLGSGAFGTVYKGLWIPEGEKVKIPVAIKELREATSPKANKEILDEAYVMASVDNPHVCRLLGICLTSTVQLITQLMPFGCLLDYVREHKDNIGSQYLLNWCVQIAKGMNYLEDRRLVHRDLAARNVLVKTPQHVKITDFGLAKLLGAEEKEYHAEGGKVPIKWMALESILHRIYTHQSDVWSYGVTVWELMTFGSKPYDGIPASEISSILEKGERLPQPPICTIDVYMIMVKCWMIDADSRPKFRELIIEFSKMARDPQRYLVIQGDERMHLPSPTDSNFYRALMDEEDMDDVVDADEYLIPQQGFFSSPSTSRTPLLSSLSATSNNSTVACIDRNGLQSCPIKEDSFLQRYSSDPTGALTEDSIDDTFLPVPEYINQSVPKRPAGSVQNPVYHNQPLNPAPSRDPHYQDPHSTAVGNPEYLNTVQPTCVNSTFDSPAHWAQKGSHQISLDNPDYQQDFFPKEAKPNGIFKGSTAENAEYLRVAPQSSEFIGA
CSNK1D, sequence (P48730 whole entry): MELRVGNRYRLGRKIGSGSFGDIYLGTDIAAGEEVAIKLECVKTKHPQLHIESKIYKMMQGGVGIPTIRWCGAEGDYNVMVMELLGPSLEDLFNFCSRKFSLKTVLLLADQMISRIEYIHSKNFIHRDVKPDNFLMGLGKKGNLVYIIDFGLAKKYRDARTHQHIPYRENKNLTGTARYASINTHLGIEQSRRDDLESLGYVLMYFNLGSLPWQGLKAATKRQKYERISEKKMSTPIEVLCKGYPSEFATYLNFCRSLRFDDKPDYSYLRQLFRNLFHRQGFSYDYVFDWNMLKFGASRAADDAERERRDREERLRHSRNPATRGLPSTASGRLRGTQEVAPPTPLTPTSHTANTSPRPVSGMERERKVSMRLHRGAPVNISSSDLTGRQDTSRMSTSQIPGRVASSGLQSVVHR
CSNK1A1, sequence (P48729 whole entry): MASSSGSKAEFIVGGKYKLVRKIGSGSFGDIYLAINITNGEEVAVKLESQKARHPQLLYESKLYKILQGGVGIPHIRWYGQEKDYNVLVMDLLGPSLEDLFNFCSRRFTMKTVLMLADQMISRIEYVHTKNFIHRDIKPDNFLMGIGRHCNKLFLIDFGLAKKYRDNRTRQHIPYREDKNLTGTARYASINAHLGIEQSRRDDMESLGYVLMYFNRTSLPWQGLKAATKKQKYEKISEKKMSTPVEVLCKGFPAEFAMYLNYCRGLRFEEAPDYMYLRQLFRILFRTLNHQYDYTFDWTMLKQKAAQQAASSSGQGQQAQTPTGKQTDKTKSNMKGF

With `CN1CC(C)(C)c2[nH]c(-c3ccnc(NC(=O)C(CC(F)F)c4ccc(F)cc4)c3)c(-c3ccccc3)c2C1=O` (single isomer, unassigned; (+)) [Example 152, (+)-4,4-difluoro-2-(4-fluorophenyl)-N-[4-(5,7,7-trimethyl-4-oxo-3-phenyl-4,5,6,7-tetrahydro-1H-pyrrolo[3,2-c]pyridin-2-yl)pyridin-2-yl]butanamide], the IC50 is 4.5 nM at CSNK1D, above 20000 nM in assay [1] (setting [2]) and 4.3 nM on CSNK1A1.
`CN1CCc2[nH]c(-c3ccnc(NC(=O)C(CC(F)F)c4ccc(F)cc4)c3)c(-c3ccc(F)cc3F)c2C1=O` (racemic) [Example 66, N-{4-[3-(2,4-difluorophenyl)-5-methyl-4-oxo-4,5,6,7-tetrahydro-1H-pyrrolo[3,2-c]pyridin-2-yl]pyridin-2-yl}-4,4-difluoro-2-(4-fluorophenyl)butanamide]: the IC50 at CSNK1D was 3.2 nM; in assay [1] (setting [3]) it was above 20000 nM; at CSNK1A1, 4.4 nM.
On the same counts, the results for `CC(C(=O)Nc1cc(-c2[nH]c3ccn(C)c(=O)c3c2-c2ccsc2)ccn1)c1ccc(F)cc1` (racemic) [Example 131, 2-(4-fluorophenyl)-N-{4-[5-methyl-4-oxo-3-(3-thienyl)-4,5-dihydro-1H-pyrrolo[3,2-c]pyridin-2-yl]pyridin-2-yl}propanamide] are 10 nM, above 20000 nM and 7 nM.
Consider `CC(C(=O)Nc1cc(-c2[nH]c3ccn(C)c(=O)c3c2-c2cc(F)cc(F)c2)ccn1)c1ccc(F)cc1` (racemic) [Example 121, N-{4-[3-(3,5-difluorophenyl)-5-methyl-4-oxo-4,5-dihydro-1H-pyrrolo[3,2-c]pyridin-2-yl]pyridin-2-yl}-2-(4-fluorophenyl)propanamide], for which the IC50 at CSNK1D is 13 nM; in assay [1] (setting [3]), above 5710 nM; in assay [1] (setting [2]) it was above 5710 nM; at CSNK1A1, 7 nM.
In the case of `O=C1NCCc2[nH]c(-c3ccnc(NC(=O)C(CC(F)F)c4ccc(F)cc4)c3)c(-c3ccccc3)c21` (racemic) [Example 75, 4,4-difluoro-2-(4-fluorophenyl)-N-[4-(4-oxo-3-phenyl-4,5,6,7-tetrahydro-1H-pyrrolo[3,2-c]pyridin-2-yl)pyridin-2-yl]butanamide], the IC50 is 4.5 nM at CSNK1D, above 20000 nM in assay [1] (setting [3]) and 2.7 nM at CSNK1A1.
`CN1CC(CC2CC2)c2[nH]c(-c3ccnc(NC(=O)C(CC(F)F)c4ccc(F)cc4)c3)c(-c3ccc(F)cc3)c2C1=O` (centres unmarked) [Example 64, N-{4-[7-(cyclopropylmethyl)-3-(4-fluorophenyl)-5-methyl-4-oxo-4,5,6,7-tetrahydro-1H-pyrrolo[3,2-c]pyridin-2-yl]pyridin-2-yl}-4,4-difluoro-2-(4-fluorophenyl)butanamide]: the IC50 at CSNK1D is 4.8 nM; in assay [1] (setting [2]) it was above 20000 nM; at CSNK1A1, 8.5 nM.
Consider `Cn1cc(CC(F)F)c2[nH]c(-c3ccnc(NC(=O)C(CC(F)F)c4ccc(F)cc4)c3)c(-c3ccccc3)c2c1=O` (single isomer, unassigned) [Example 149, N-{4-[7-(2,2-difluoroethyl)-5-methyl-4-oxo-3-phenyl-4,5-dihydro-1H-pyrrolo[3,2-c]pyridin-2-yl]pyridin-2-yl}-4,4-difluoro-2-(4-fluorophenyl)butanamide], for which the IC50 on CSNK1D was 3.8 nM; in assay [1] (setting [3]), above 20000 nM; at CSNK1A1, 3.7 nM.
Consider `CC(C(=O)Nc1cc(-c2[nH]c3c(c2-c2cccnc2)C(=O)NC(C)(C)C3)ccn1)c1ccc(F)cc1` (single isomer, unassigned) [Example 99, N-{4-[6,6-dimethyl-4-oxo-3-(pyridin-3-yl)-4,5,6,7-tetrahydro-1H-pyrrolo[3,2-c]pyridin-2-yl]pyridin-2-yl}-2-(4-fluorophenyl)propanamide], for which the results for the IC50 (at CSNK1D; in assay [1] (setting [2]); at CSNK1A1) were 5.5 nM, above 20000 nM and 4.3 nM, respectively.
For the molecule `CC(C(=O)Nc1cc(-c2[nH]c3c(c2-c2ccccc2)C(=O)NCC3)ccn1)c1ccc(F)cc1` (racemic) [Example 74, 2-(4-fluorophenyl)-N-[4-(4-oxo-3-phenyl-4,5,6,7-tetrahydro-1H-pyrrolo[3,2-c]pyridin-2-yl)pyridin-2-yl]propanamide], the IC50 on CSNK1D was 3 nM; in assay [1] (setting [3]), above 20000 nM; on CSNK1A1, 1.6 nM.
`Cn1cc(Cl)c2[nH]c(-c3ccnc(NC(=O)Cc4ccc(F)cc4)c3)c(-c3ccccc3)c2c1=O` [Example 79, N-[4-(7-chloro-5-methyl-4-oxo-3-phenyl-4,5-dihydro-1H-pyrrolo[3,2-c]pyridin-2-yl)pyridin-2-yl]-2-(4-fluorophenyl)acetamide]: the IC50 at CSNK1D is 4.8 nM; in assay [1] (setting [2]), above 20000 nM; at CSNK1A1, 5.1 nM.
The like results for `CN1CCc2[nH]c(-c3ccnc(NC(=O)C(CC(F)F)c4ccc(F)cc4)c3)c(-c3ccc(F)cc3F)c2C1=O` (single isomer, unassigned) [Example 68, N-{4-[3-(2,4-difluorophenyl)-5-methyl-4-oxo-4,5,6,7-tetrahydro-1H-pyrrolo[3,2-c]pyridin-2-yl]pyridin-2-yl}-4,4-difluoro-2-(4-fluorophenyl)butanamide] were, in that order, 5.6 nM, above 20000 nM and 4.1 nM.
Take `CC(C(=O)Nc1cc(-c2[nH]c3ccn(C)c(=O)c3c2-c2ccccc2C#N)ccn1)c1ccc(F)cc1` (racemic) [Example 123, N-{4-[3-(2-cyanophenyl)-5-methyl-4-oxo-4,5-dihydro-1H-pyrrolo[3,2-c]pyridin-2-yl]pyridin-2-yl}-2-(4-fluorophenyl)propanamide]: the values for the IC50 (on CSNK1D; in assay [1] (setting [3]); on CSNK1A1) were 22 nM, above 20000 nM and 25 nM, respectively.
On the same counts, the results for `CC(C(=O)Nc1cc(-c2[nH]c3ccn(C)c(=O)c3c2-c2cccc(O)c2)ccn1)c1ccc(F)cc1` (racemic) [Example 113, 2-(4-fluorophenyl)-N-{4-[3-(3-hydroxyphenyl)-5-methyl-4-oxo-4,5-dihydro-1H-pyrrolo[3,2-c]pyridin-2-yl]pyridin-2-yl}propanamide] are 33 nM, above 20000 nM and 32 nM.
Regarding `Cc1ccc(-c2c(-c3ccnc(NC(=O)C(C)c4ccc(F)cc4)c3)[nH]c3ccn(C)c(=O)c23)s1` (racemic) [Example 125, 2-(4-fluorophenyl)-N-{4-[5-methyl-3-(5-methyl-2-thienyl)-4-oxo-4,5-dihydro-1H-pyrrolo[3,2-c]pyridin-2-yl]pyridin-2-yl}propanamide], the IC50 at CSNK1D is 5.9 nM; in assay [1] (setting [3]) it was above 1630 nM; in assay [1] (setting [2]), above 1630 nM; at CSNK1A1 it was 3.3 nM.
For `COCCNC(=O)c1ccc(CC(=O)Nc2cc(-c3[nH]c4ccn(C)c(=O)c4c3-c3ccc(F)cc3)ccn2)cc1` [Example 142, 4-[2-({4-[3-(4-fluorophenyl)-5-methyl-4-oxo-4,5-dihydro-1H-pyrrolo[3,2-c]pyridin-2-yl]pyridin-2-yl}amino)-2-oxoethyl]-N-(2-methoxyethyl)benzamide], the IC50 at CSNK1D is 3.8 nM; in assay [1] (setting [2]) it was above 20000 nM; at CSNK1A1, 2.7 nM.
As for `COCCN(C)C(=O)c1ccc(CC(=O)Nc2cc(-c3[nH]c4c(c3-c3ccc(F)cc3)C(=O)N(C)CC4)ccn2)cc1` [Example 141, 4-[2-({4-[3-(4-fluorophenyl)-5-methyl-4-oxo-4,5,6,7-tetrahydro-1H-pyrrolo[3,2-c]pyridin-2-yl]pyridin-2-yl}amino)-2-oxoethyl]-N-(2-methoxyethyl)-N-methylbenzamide], the IC50 at CSNK1D was 2.7 nM; in assay [1] (setting [2]) it was above 20000 nM; on CSNK1A1 it was 3.6 nM.
In the case of `O=C(Nc1cc(-c2[nH]c3ccn(C4CC4)c(=O)c3c2-c2ccccn2)ccn1)C(CC(F)F)c1ccc(F)cc1` (racemic) [Example 160, (2RS)—N-{4-[5-cyclopropyl-4-oxo-3-(pyridin-2-yl)-4,5-dihydro-1H-pyrrolo[3,2-c]pyridin-2-yl]pyridin-2-yl}-4,4-difluoro-2-(4-fluorophenyl)butanamide], the IC50 at CSNK1D is 10 nM; in assay [1] (setting [3]), above 20000 nM; on CSNK1A1, 8.7 nM.
On the same counts, the results for `CC(C(=O)Nc1cc(-c2[nH]c3ccn(C)c(=O)c3c2-c2ccc(O)cc2)ccn1)c1ccc(F)cc1` (racemic) [Example 119, 2-(4-fluorophenyl)-N-{4-[3-(4-hydroxyphenyl)-5-methyl-4-oxo-4,5-dihydro-1H-pyrrolo[3,2-c]pyridin-2-yl]pyridin-2-yl}propanamide] are 11 nM, above 20000 nM and 15 nM.
`CC(C(=O)Nc1cc(-c2[nH]c3c(c2-c2ccc(F)cc2)C(=O)NC(C)(C)C3)ccn1)c1ccc(F)cc1` (single isomer, unassigned) [Example 95, 2-(4-fluorophenyl)-N-{4-[3-(4-fluorophenyl)-6,6-dimethyl-4-oxo-4,5,6,7-tetrahydro-1H-pyrrolo[3,2-c]pyridin-2-yl]pyridin-2-yl}propanamide]: the IC50 on CSNK1D was 4.6 nM; in assay [1] (setting [3]), above 20000 nM; at CSNK1A1, 14 nM.
